Experimental data taken from the NIST ThermoML archive (doi:10.1021/je7000667).

Assay: xn = mol fraction of the nth substance listed
Settings: Gas, Burnett expansion method

FC(C(F)(F)F)C(F)(F)F [1,1,1,2,3,3,3-heptafluoropropane] + FCF
Settings	mass density [kg/m3]
360 K, 221.36 kPa, x2 = 0.5155	8.234
360 K, 239.67 kPa, x2 = 0.2648	11.408
360 K, 243.21 kPa, x2 = 0.7809	6.433
360 K, 303.15 kPa, x2 = 0.5155	11.36
360 K, 327.36 kPa, x2 = 0.2648	15.74
360 K, 333.32 kPa, x2 = 0.7809	8.875
360 K, 414 kPa, x2 = 0.5155	15.673
360 K, 445.38 kPa, x2 = 0.2648	21.715
360 K, 455.62 kPa, x2 = 0.7809	12.244
360 K, 563.21 kPa, x2 = 0.5155	21.622
360 K, 602.72 kPa, x2 = 0.2648	29.96
360 K, 620.87 kPa, x2 = 0.7809	16.892
360 K, 761.94 kPa, x2 = 0.5155	29.83
360 K, 809.48 kPa, x2 = 0.2648	41.334
360 K, 842.09 kPa, x2 = 0.7809	23.305
360 K, 1023.1 kPa, x2 = 0.5155	41.153
360 K, 1075.4 kPa, x2 = 0.2648	57.027
360 K, 1134.1 kPa, x2 = 0.7809	32.152
360 K, 1359.1 kPa, x2 = 0.5155	56.775
360 K, 1407.1 kPa, x2 = 0.2648	78.678
360 K, 1513.7 kPa, x2 = 0.7809	44.316
360 K, 1778.5 kPa, x2 = 0.5155	78.326
360 K, 1801.2 kPa, x2 = 0.2648	108.549
360 K, 1995.5 kPa, x2 = 0.7809	61.139
360 K, 2234.4 kPa, x2 = 0.2648	149.76
360 K, 2279 kPa, x2 = 0.5155	108.059
360 K, 2584.7 kPa, x2 = 0.7809	84.349
360 K, 2647.8 kPa, x2 = 0.2648	206.618
360 K, 2834.8 kPa, x2 = 0.5155	149.078
370 K, 180 kPa, x2 = 0.2648	8.265
370 K, 227.73 kPa, x2 = 0.5155	8.23
370 K, 246.7 kPa, x2 = 0.2648	11.403
370 K, 250.16 kPa, x2 = 0.7809	6.429
370 K, 312.04 kPa, x2 = 0.5155	11.355
370 K, 337.19 kPa, x2 = 0.2648	15.732
370 K, 343.02 kPa, x2 = 0.7809	8.87
370 K, 426.48 kPa, x2 = 0.5155	15.665
370 K, 459.23 kPa, x2 = 0.2648	21.704
370 K, 469.2 kPa, x2 = 0.7809	12.238
370 K, 580.8 kPa, x2 = 0.5155	21.611
370 K, 622.4 kPa, x2 = 0.2648	29.945
370 K, 639.98 kPa, x2 = 0.7809	16.884
370 K, 786.9 kPa, x2 = 0.5155	29.815
370 K, 837.7 kPa, x2 = 0.2648	41.314
370 K, 869.16 kPa, x2 = 0.7809	23.293
370 K, 1058.9 kPa, x2 = 0.5155	41.133
370 K, 1116.3 kPa, x2 = 0.2648	56.999
370 K, 1172.8 kPa, x2 = 0.7809	32.136
370 K, 1411 kPa, x2 = 0.5155	56.746
370 K, 1467.3 kPa, x2 = 0.2648	78.639
370 K, 1569.4 kPa, x2 = 0.7809	44.294
370 K, 1854.7 kPa, x2 = 0.5155	78.287
370 K, 1891.2 kPa, x2 = 0.2648	108.495
370 K, 2076.9 kPa, x2 = 0.7809	61.109
370 K, 2371.1 kPa, x2 = 0.2648	149.686
370 K, 2392.6 kPa, x2 = 0.5155	108.005
370 K, 2705.2 kPa, x2 = 0.7809	84.308
370 K, 2859.2 kPa, x2 = 0.2648	206.516
370 K, 3006.5 kPa, x2 = 0.5155	149.004
390 K, 190.02 kPa, x2 = 0.2648	8.257
390 K, 240.4 kPa, x2 = 0.5155	8.222
390 K, 260.65 kPa, x2 = 0.2648	11.392
390 K, 264.02 kPa, x2 = 0.7809	6.423
390 K, 329.74 kPa, x2 = 0.5155	11.344
390 K, 356.74 kPa, x2 = 0.2648	15.716
390 K, 362.31 kPa, x2 = 0.7809	8.862
390 K, 451.27 kPa, x2 = 0.5155	15.65
390 K, 486.71 kPa, x2 = 0.2648	21.683
390 K, 496.17 kPa, x2 = 0.7809	12.226
390 K, 615.63 kPa, x2 = 0.5155	21.59
390 K, 661.34 kPa, x2 = 0.2648	29.916
390 K, 677.89 kPa, x2 = 0.7809	16.867
390 K, 836.32 kPa, x2 = 0.5155	29.786
390 K, 893.34 kPa, x2 = 0.2648	41.274
390 K, 922.76 kPa, x2 = 0.7809	23.271
390 K, 1129.5 kPa, x2 = 0.5155	41.093
390 K, 1196.7 kPa, x2 = 0.2648	56.943
390 K, 1249.8 kPa, x2 = 0.7809	32.105
390 K, 1513 kPa, x2 = 0.5155	56.692
390 K, 1584.8 kPa, x2 = 0.2648	78.563
390 K, 1679.1 kPa, x2 = 0.7809	44.251
390 K, 2003.7 kPa, x2 = 0.5155	78.212
390 K, 2065.6 kPa, x2 = 0.2648	108.39
390 K, 2236.4 kPa, x2 = 0.7809	61.05
390 K, 2613.6 kPa, x2 = 0.5155	107.901
390 K, 2634 kPa, x2 = 0.2648	149.541
390 K, 2940 kPa, x2 = 0.7809	84.226
390 K, 3260.4 kPa, x2 = 0.2648	206.316
390 K, 3338.4 kPa, x2 = 0.5155	148.86
410 K, 105.73 kPa, x2 = 0.2648	4.333
410 K, 106.47 kPa, x2 = 0.7809	2.443
410 K, 133.75 kPa, x2 = 0.5155	4.316
410 K, 145.48 kPa, x2 = 0.2648	5.979
410 K, 146.65 kPa, x2 = 0.7809	3.371
410 K, 184.04 kPa, x2 = 0.5155	5.954
410 K, 199.99 kPa, x2 = 0.2648	8.248
410 K, 201.86 kPa, x2 = 0.7809	4.651
410 K, 253.05 kPa, x2 = 0.5155	8.214
410 K, 274.54 kPa, x2 = 0.2648	11.38
410 K, 277.79 kPa, x2 = 0.7809	6.417
410 K, 347.32 kPa, x2 = 0.5155	11.332
410 K, 376.14 kPa, x2 = 0.2648	15.701
410 K, 381.49 kPa, x2 = 0.7809	8.853
410 K, 475.89 kPa, x2 = 0.5155	15.634
410 K, 513.94 kPa, x2 = 0.2648	21.661
410 K, 522.95 kPa, x2 = 0.7809	12.214
410 K, 650.2 kPa, x2 = 0.5155	21.568
410 K, 699.84 kPa, x2 = 0.2648	29.885
410 K, 715.45 kPa, x2 = 0.7809	16.85
410 K, 885.1 kPa, x2 = 0.5155	29.756
410 K, 948.18 kPa, x2 = 0.2648	41.232
410 K, 975.71 kPa, x2 = 0.7809	23.247
410 K, 1199.1 kPa, x2 = 0.5155	41.051
410 K, 1275.5 kPa, x2 = 0.2648	56.886
410 K, 1325.1 kPa, x2 = 0.7809	32.073
410 K, 1613 kPa, x2 = 0.5155	56.634
410 K, 1699.6 kPa, x2 = 0.2648	78.483
410 K, 1786.7 kPa, x2 = 0.7809	44.206
410 K, 2149.2 kPa, x2 = 0.5155	78.132
410 K, 2235 kPa, x2 = 0.2648	108.28
410 K, 2392.4 kPa, x2 = 0.7809	60.988
410 K, 2828 kPa, x2 = 0.5155	107.791
410 K, 2887.1 kPa, x2 = 0.2648	149.389
410 K, 3168.3 kPa, x2 = 0.7809	84.141
410 K, 3641.6 kPa, x2 = 0.2648	206.107
410 K, 3658.2 kPa, x2 = 0.5155	148.709
